In US20250243176A1, “(S)-1-(1-ACRYLOYLPIPERIDIN-3-YL)-2-FLUORO-5,6,7,8,9,10-HEXAHYDROCYCLO HEPTA[B]INDOLE-4-CARBOXAMIDE, AND RELATED CRYSTALLINE FORMS, COMPOSITIONS, AND METHODS THEREOF” (GB005, Inc., priority 2021, published 2025):
≈ marks a conversion by molar mass, not a printed value. Read-outs that look alike come from different tables or passages of the source.

How the values were obtained:
[1] = Solubility testing in vehicle, HPLC (Form III); format: physicochemical; settings: thermodynamic from solid
Protocol: In each of the following studies (Examples 6-10), the starting material was Compound 1 (free form, not salt) Form III. The material was a light yellow solid, comprising non-hygroscopic irregular shaped crystal with aggregation. The same analytical methods as described in Example 1 were employed.
Vehicle solutions were prepared as follows:
Solubility was determined at room temperature for 24 and 72 hours and at 45° C. for 4 and 24 hours. About 30/100 mg Compound 1 was added to vehicle (2 mL) and the mixture stirred at room temperature for 24 or 72 hours. The suspensions were filtered or centrifuged, and the filtrate analyzed by HPLC.

[2] = Phase 1 CSF penetrance (CSF/unbound plasma concentration); format: in vivo; settings: both sexes, human, oral; for Kp at 2 h: CSF / unbound plasma
Protocol: Safety is assessed throughout the study and PK and PD are characterized using serial blood samples collected up to 48 hours post-dose for Compound 1 plasma concentrations, BTK target occupancy (TO) and target engagement (TE). Cerebrospinal fluid (CSF) samples are collected at 2 hours post-dose to characterize the relationship between Compound 1 plasma concentrations and CNS penetrance (CSF/Unbound plasma concentration). Compound 1 PK parameters (e.g., AUClast, AUCinf, Cmax, Tmax, t1/2) are estimated by standard noncompartmental methods.
Mean Compound 1 CSF:unbound plasma concentration ratios approximated 1 indicating unimpeded access of unbound drug in plasma into the CNS (see, e.g., Table 46, reported as Mean (% coefficient of variation), and FIG. 26 showing CSF to unbound plasma ratio by dose).

[3] = Phase 1 multiple ascending dose plasma pharmacokinetics; format: in vivo; settings: both sexes, human, oral, MAD cohort, 15 mg once daily for 10 days, fed
[4] = CNS penetration (background statement)
Excerpt: (S)-1-(1-acryloylpiperidin-3-yl)-2-fluoro-5,6,7,8,9,10-hexahydrocyclohepta[b]indole-4-carboxamide, hereinafter referred to as “Compound 1”, is an orally available, selective, potent inhibitor of Bruton's tyrosine kinase (BTK), thereby providing potential treatment options in BTK-driven diseases. The potency of Compound 1 for BTK inhibition is in the nM range in both cell-free enzymatic and whole blood functional assays.

[5] = oil or lipid, Miglyol 810, RT, pH 5.8, loading 15 mg/mL
[6] = oil or lipid, Phosal 50PG, RT, pH 5.8, loading 50 mg/mL
[7] = oil or lipid, Sesame oil, RT, pH 6.5, loading 15 mg/mL

solubility at 72 h ([1]; oil or lipid, Capryol 90, RT, pH 6.5, loading 50 mg/mL): > 50 mg/mL
solubility at 24 h [1, 5]: 2.16 mg/mL (≈ 5.63 mM)
solubility at 72 h [1, 5]: 2.67 mg/mL (≈ 6.96 mM)
solubility at 4 h ([1]; oil or lipid, Oleic acid, 45° C., pH 3.0, loading 15 mg/mL): 8.5 mg/mL (≈ 22.2 mM)
solubility at 24 h ([1]; oil or lipid, Oleic acid, 45° C., pH 3.3, loading 15 mg/mL): 14 mg/mL (≈ 36.5 mM)
solubility at 24 h ([1]; oil or lipid, Olive oil, RT, pH 5.2, loading 15 mg/mL): 0.44 mg/mL (≈ 1.15 mM)
solubility at 72 h ([1]; oil or lipid, Olive oil, RT, pH 5.8, loading 15 mg/mL): 0.91 mg/mL (≈ 2.37 mM)
solubility at 24 h [1, 6]: 15.7 mg/mL (≈ 40.8 mM)
solubility at 72 h [1, 6]: 23.8 mg/mL (≈ 62 mM)
solubility at 24 h [1, 7]: 0.73 mg/mL (≈ 1.9 mM)
solubility at 72 h [1, 7]: 0.76 mg/mL (≈ 1.98 mM)
solubility at 4 h ([1]; oil or lipid, phsal 53 MCT, 45° C., pH 5.3, loading 15 mg/mL): 6.4 mg/mL (≈ 16.7 mM)
solubility at 24 h ([1]; oil or lipid, phsal 53 MCT, 45° C., pH 5.1, loading 15 mg/mL): > 15 mg/mL
solubility at 24 h ([1]; organic solvent or mixture, Cremophor EL, RT, pH 8.5, loading 50 mg/mL): 19.5 mg/mL (≈ 50.9 mM)
solubility at 72 h ([1]; organic solvent or mixture, Cremophor EL, RT, pH 8.3, loading 50 mg/mL): 33 mg/mL (≈ 86.1 mM)
solubility at 4 h ([1]; organic solvent or mixture, Cremophor HS 15, 45° C., pH 7.6, loading 50 mg/mL): > 50 mg/mL
solubility at 24 h ([1]; organic solvent or mixture, Cremophor HS 15, 45° C., pH 7.5, loading 50 mg/mL): > 50 mg/mL
solubility at 24 h ([1]; organic solvent or mixture, Cremophor RH40, 45° C., loading 50 mg/mL): 33 mg/mL (≈ 86.1 mM)
solubility at 24 h ([1]; organic solvent or mixture, EtOH, RT, pH 5.9, loading 50 mg/mL): 19.4 mg/mL (≈ 50.6 mM)
solubility at 72 h ([1]; organic solvent or mixture, EtOH, RT, pH 6.2, loading 50 mg/mL): 27.6 mg/mL (≈ 72 mM)
solubility at 4 h ([1]; organic solvent or mixture, PEG400/TPGS(3/1), 45° C., pH 6.6, loading 50 mg/mL): > 50 mg/mL
solubility at 24 h ([1]; organic solvent or mixture, PEG400/TPGS(3/1), 45° C., pH 6.1, loading 50 mg/mL): > 50 mg/mL
solubility at 24 h ([1]; organic solvent or mixture, PEG400, RT, pH 5.6, loading 50 mg/mL): > 50 mg/mL
solubility at 72 h ([1]; organic solvent or mixture, PEG400, RT, pH 6.7, loading 50 mg/mL): > 50 mg/mL
solubility at 24 h ([1]; organic solvent or mixture, PG, RT, pH 5.1, loading 50 mg/mL): 48.2 mg/mL (≈ 126 mM)
solubility at 72 h ([1]; organic solvent or mixture, PG, RT, pH 5.2, loading 50 mg/mL): > 50 mg/mL
Kp at 2 h ([2]; Cohort 2, 15 mg single dose, 2 hr post-dose, mean, read-out: CSF/Unbound Plasma): 0.95
Kp at 2 h ([2]; Cohort 3, 45 mg single dose, 2 hr post-dose, mean, read-out: CSF/Unbound Plasma): 0.95
Kp at 2 h ([2]; healthy subjects, CSF samples at 2 hours post-dose, read-out: Mean CSF:unbound plasma concentration ratio): ~1
concentration at 2 h ([2]; CSF, Cohort 2, 15 mg single dose, mean, read-out: CSF Conc (2 hr)): 0.9 ng/mL
concentration at 2 h ([2]; CSF, Cohort 3, 45 mg single dose, mean, read-out: CSF Conc (2 hr)): 2.07 ng/mL
concentration at 2 h ([2]; plasma (unbound), Cohort 2, 15 mg single dose, mean, read-out: Unbound Plasma Conc @2 hr): 0.83 ng/mL
concentration at 2 h ([2]; plasma (unbound), Cohort 3, 45 mg single dose, mean, read-out: Unbound Plasma Conc @2 hr): 2.33 ng/mL
concentration at 2 h ([2]; plasma, Cohort 2, 15 mg single dose, mean, read-out: Plasma Conc @2 hr): 63.2 ng/mL
concentration at 2 h ([2]; plasma, Cohort 3, 45 mg single dose, mean, read-out: Plasma Conc @2 hr): 159 ng/mL
Tmax [3]: 1.5 h
CNS penetration [4]: penetrant
SMILES: C=CC(=O)N1CCC[C@@H](c2c(F)cc(C(N)=O)c3[nH]c4c(c23)CCCCC4)C1 [Compound 1, (S)-1-(1-acryloylpiperidin-3-yl)-2-fluoro-5,6,7,8,9,10-hexahydrocyclohepta[b]indole-4-carboxamide]
